The values that follow come from US6656911B2, “Serine protease inhibitors” (Cortech, Inc., priority 1994, dated 2003).

Series [1] addresses T1, human neutrophil elastase (HNE) (Homo sapiens, UniProt P08246).
T1 sequence (P08246 30-267): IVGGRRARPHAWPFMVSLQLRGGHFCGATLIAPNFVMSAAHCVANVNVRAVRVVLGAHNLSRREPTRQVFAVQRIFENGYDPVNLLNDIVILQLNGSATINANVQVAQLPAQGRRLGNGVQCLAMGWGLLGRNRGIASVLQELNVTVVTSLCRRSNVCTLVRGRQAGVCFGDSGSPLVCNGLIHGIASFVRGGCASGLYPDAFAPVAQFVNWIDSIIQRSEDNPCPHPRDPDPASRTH
As to the kind of experiment: HNE Ki of CE compounds, tested as described in WO 96/16080. It is filed as biochemical.

The test system of series [2] is polymorphoneucleocyte (PMN). As to the kind of experiment: Extracellular Matrix (ECM) degradation assay. Format: cell-based. Conditions: PMN's stimulated with opsonized zymosan, 4 hr at 37° C.; for inhibition at 1 µM / ECM DATA % Inhibition 1 uM: 1 uM inhibitor; for inhibition at 5 µM / ECM DATA % Inhibition 5 uM: 5 uM inhibitor. The gist of the method:
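Radiolabelled ([35S]sulfate/[3H]proline) ECM from R22 rat smooth muscle cells preincubated 30 min with 1 or 5 uM inhibitor in HBSS (<2% DMSO). PMNs (5×10^5/well) stimulated with serum-opsonized zymosan (10 particles/PMN), 4 h at 37 °C. Degradation = released over total ECM counts, minus PMN-free basal release.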

Series [3] can be described thus: Blood level screening after oral dose. It is filed as in vivo, Sprague-Dawley rats. Conditions: rat, oral gavage 10 mg/kg; for concentration at 3 h / concentration at 1 h / concentration at 6 h: male, Sprague-Dawley, plasma; for concentration at 3 h: read-out: Plasma Levels (μM) 3 hr; for concentration at 1 h: read-out: Plasma Levels (μM) 1 hr; for concentration at 6 h: read-out: Plasma Levels (μM) 6 hr. The gist of the method: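 Unfasted male Sprague-Dawley rats received 10 mg/kg by oral gavage in PEG, PEG-400 or PEG:H2O:EtOH. Plasma was solvent-extracted and the inhibitor measured by HPLC or LC/MS.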

Like-named read-outs stand apart in the source and are kept apart here.

Regarding `Cc1cccc(Cc2nnc(C(=O)C(NC(=O)C3Cc4cccc5c4N3C(=O)C(N)CC5)C(C)C)o2)c1` [CE2130, (2S,5S)-5-Amino-1,2,4,5,6,7-hexahydroazepino-[3,2,1]-indole-4-one-carbonyl-N-[1-(2-[5-(3-methylbenzyl)-1,3,4-oxadiazolyl]carbonyl)-(R,S)-2-methylpropyl]amide], the inhibitory constant (Ki) in series [1] (read-out: HNE Ki) was 2.1 nM. In series [2], this compound showed an inhibition at 1 µM of 16.3% and an inhibition at 5 µM of 29%. In series [3], the concentration at 3 h stood at 0.162 µM.

Consider `Cc1cccc(Cc2nnc(C(=O)C(NC(=O)CN3C(=O)C(N)N=C(c4ccccc4)c4ccccc43)C(C)C)o2)c1` [CE2134, (R,S)-3-Amino-2-oxo-5-phenyl-1,4,-benzodiazepine-N-[1-(2-[5-(3-methylbenzyl)-1,3,4-oxadiazolyl]carbonyl)-2-(S)-methylpropyl]acetamide], for which, in series [1] (read-out: HNE Ki), the Ki came to 2 nM. Besides, in series [2], the inhibition at 1 µM was determined as 21.7% and the inhibition at 5 µM is 25.7%. The concentration at 3 h in series [3] stood at 5.02 µM.

`Cc1cccc(Cc2nnc(C(=O)C(NC(=O)CN3C(=O)NC(c4ccccc4)C3=O)C(C)C)o2)c1` [CE2149, 5-(R,S)-Phenyl-2,4-imidazolidinedione-N-[1-(2-[5-(3-methylbenzyl)-1,3,4-oxadiazolyl]carbonyl)-2-(S)-methylpropyl]acetamide]: the Ki in series [1] (read-out: HNE Ki) was determined as 0.28 nM. In series [2], this compound gave an inhibition at 1 µM of 51.3% and an inhibition at 5 µM of 55.9%. Also, in series [3], the concentration at 1 h was 0 µM and the concentration at 3 h is 0 µM. Also, the concentration at 6 h in series [3] (6 hr) was determined as 0 µM.

Turning to `Cc1cccc(Cc2nnc(C(=O)[C@@H](NC(=O)CN3C(=O)CN=C(c4ccccc4)c4ccccc43)C(C)C)o2)c1` [CE2157], the inhibition constant Ki in series [1] (read-out: HNE Ki) was found to be 1.4 nM. In series [2], this compound gave an inhibition at 1 µM of 9.96% and an inhibition at 5 µM of 13.4%. In series [3], the concentration at 3 h amounted to 3.81 µM.

As for `Cc1cccc(Cc2nnc(C(=O)[C@@H](NC(=O)[C@@H]3CCCN3C(=O)[C@@H](NS(C)(=O)=O)C(C)C)C(C)C)o2)c1` [CE2163, Methylsulfonyl-L-valyl-N-[1-(2-[5-(3-methylbenzyl)-1,3,4-oxadiazolyl]carbonyl)-2-(S)-methylpropyl]-L-prolinamide], the inhibition constant (Ki) in series [1] (read-out: HNE Ki) turned out to be 0.75 nM. Moreover, in series [2], the inhibition at 1 µM came out at 54.7% and the inhibition at 5 µM was 64%. Besides, the concentration at 3 h in series [3] was 0.316 µM.

In the case of `Cc1cccc(Cc2nnc(C(=O)[C@@H](NC(=O)CN3C(=O)N[C@H](C(C)C)C3=O)C(C)C)o2)c1` [CE2174, 4-(R)-Isopropyl-2,5-imidazolidinedione-N-[1-(2-[5-(3-methylbenzyl)-1,3,4-oxadiazolyl]carbonyl)-2-(S)-methylpropyl]acetamide], the Ki in series [1] (read-out: HNE Ki) was found to be 15.2 nM. Besides, in series [2], the “ECM DATA % Inhibition 1 uM” value stood at 1.49% and the “ECM DATA % Inhibition 5 uM” value was 18.3%. Also, in series [3], the “Plasma Levels (μM) 1 hr” value was determined as 1.86 µM and the “Plasma Levels (μM) 3 hr” value came out at 0.97 µM.

`CC(C)[C@H](NC(=O)[C@@H]1CCCN1C(=O)[C@@H](NC(=O)OCc1ccccc1)C(C)C)C(=O)c1nnc(Cc2ccc3c(c2)OCO3)o1` [CE2177, (Benzyloxycarbonyl)-L-valyl-N-[1-(2-[5-(3,4-methylenedioxybenzyl)-1,3,4-oxadiazolyl]carbonyl)-2-(S)-methylpropyl]-L-prolinamide]: in series [1] (read-out: HNE Ki), the Ki was 0.016 nM. For the same compound, in series [2], the inhibition at 1 µM was found to be 74.2% and the inhibition at 5 µM is 76.8%. For the same compound, in series [3], the concentration at 1 h came out at 0.393 µM and the concentration at 3 h was determined as 0.41 µM. Moreover, the concentration at 6 h in series [3] (6 hr) was 0 µM.

`CC(C)[C@H](NC(=O)[C@@H]1CCCN1C(=O)[C@@H](NC(=O)OCc1ccccc1)C(C)C)C(=O)c1noc(Cc2ccc3c(c2)OCO3)n1` [CE2178, (Benzyloxycarbonyl)-L-valyl-N-[1-(3-[5-(3,4-methylenedioxybenzyl)-1,2,4-oxadiazolyl]carbonyl)-2-(S)-methylpropyl]-L-prolinamide]: the Ki in series [1] (read-out: HNE Ki) came out at 0.29 nM. Moreover, testing at 5 µM in series [2] gave an inhibition of 34%. For the same compound, in series [3], the concentration at 3 h worked out at 0.185 µM.

On to `Cc1cccc(Cc2nnc(C(=O)C(NC(=O)CN3C(=O)C(c4ccccc4)N(C)C3=O)C(C)C)o2)c1` [CE2179, 5-(R,S)-Phenyl-1-methyl-2,4-imidazolidinedione-N-[1-(2-[5-(3-methylbenzyl)-1,3,4-oxadiazolyl]carbonyl)-2-(S)-methylpropyl]acetamide], for which the Ki in series [1] (read-out: HNE Ki) turned out to be 7.6 nM. In series [2], this compound gave an inhibition at 1 µM of 48.8% and an inhibition at 5 µM of 45.9%. Moreover, in series [3], the concentration at 1 h worked out at 1.23 µM and the concentration at 3 h was determined as 0.599 µM.

On to `Cc1cccc(Cc2nnc(C(=O)C(NC(=O)CN3C(=O)C(Cc4ccccc4)N(CCN4CCOCC4)C3=O)C(C)C)o2)c1` [CE2184, 1-(N-Morpholinoethyl)-5-(S)-benzyl-2,4-imidazolidinedione-N-[1-(2-[5-(3-methylbenzyl)-1,3,4-oxadiazolyl]carbonyl)-2-(R,S)-methylpropyl]acetamide], for which the Ki in series [1] (read-out: HNE Ki) amounted to 8.2 nM. In series [2], this compound showed an inhibition at 1 µM of 30.5% and an inhibition at 5 µM of 32.4%. The concentration at 3 h in series [3] amounted to 0.57 µM.

On to `Cc1cccc(Cc2nnc(C(=O)[C@@H](NC(=O)CN3C(=O)NC(c4ccc(N(C)C)cc4)C3=O)C(C)C)o2)c1` (some centres unmarked) [CE2194], for which the Ki in series [1] (read-out: HNE Ki) is 2.4 nM. Moreover, in series [2], the “ECM DATA % Inhibition 1 uM” value is given as 41% and the “ECM DATA % Inhibition 5 uM” value amounted to 58.7%. Also, in series [3], the “Plasma Levels (μM) 1 hr” value was found to be 1.11 µM and the “Plasma Levels (μM) 3 hr” value was found to be 0.553 µM.

Take `Cc1cccc(Cc2nnc(C(=O)[C@@H](NC(=O)CN3C(=O)NC(C)(c4ccccn4)C3=O)C(C)C)o2)c1` (stereo partly drawn) [CE2216, [4-(R,S)-(2-Pyridyl)-4-(R,S)-methyl]-2,5-imidazolidinedione-N-[1-(2-[5-(3-methylbenzyl)-1,3,4-oxadiazolyl]carbonyl)-2-(S)-methylpropyl]acetamide]: in series [1] (read-out: HNE Ki), the Ki turned out to be 4.1 nM. In series [2], the “ECM DATA % Inhibition 1 uM” value came out at 32.1% and the “ECM DATA % Inhibition 5 uM” value stood at 37.15%. In addition, in series [3], the “Plasma Levels (μM) 1 hr” value was 0.77 µM and the “Plasma Levels (μM) 3 hr” value is 0.47 µM. Further, in series [3] (6 hr), the “Plasma Levels (μM) 6 hr” value came to 0.25 µM.

The compound `Cc1cccc(Cc2nnc(C(=O)[C@@H](NC(=O)CN3C(=O)CN=C(c4ccccn4)c4ccccc43)C(C)C)o2)c1` [CE2217, 2-Oxo-5-(2-pyridyl)-1,4-benzodiazepine-N-[1-(2-[5-(3-methylbenzyl)-1,3,4-oxadiazolyl]carbonyl)-2-(S)-methylpropyl]acetamide] displayed a Ki in series [1] (HNE Ki (nM)) of 5.5 nM. In series [2], the inhibition at 1 µM was 28.1% and the inhibition at 5 µM was determined as 41.2%. Also, in series [3], the concentration at 1 h was 1.99 µM and the concentration at 3 h came out at 0.521 µM.

`Cc1cccc(Cc2nnc(C(=O)C(NC(=O)CN3C(=O)C(N)N=C(c4ccc(Cl)cc4)c4ccccc43)C(C)C)o2)c1` [CE2224, (R,S)-3-Amino-2-oxo-5-(4-chlorophenyl)-1,4-benzodiazepine-N-[1-(2-[5-(3-methylbenzyl)-1,3,4-oxadiazolyl]carbonyl)-2-(R,S)-methylpropyl]acetamide]: the Ki in series [1] (read-out: HNE Ki) amounted to 1 nM. In addition, in series [2], 1 µM produced 43.2% inhibition and the inhibition at 5 µM came to 66.8%. In series [3], the concentration at 1 h came to 1.84 µM and the concentration at 3 h was 1.94 µM. Besides, in series [3] (6 hr), the concentration at 6 h came to 1.96 µM.

For the compound `Cc1cccc(Cc2nnc(C(=O)C(NC(=O)CN3C(=O)C(NC(=O)OCc4ccccc4)N=C(c4ccccc4Cl)c4cc(Cl)ccc43)C(C)C)o2)c1` [CE2230, (R,S)-3-Benzyloxycarbonylamino-2-oxo-5-(2-chlorophenyl)-1,4-(2′-chlorobenzodiazepine)-N-[1-(2-[5-(3-methylbenzyl)-1,3,4-oxadiazolyl]carbonyl)-2-(R,S)-methylpropyl]acetamide], in series [1] (read-out: HNE Ki), the Ki amounted to 2.6 nM. For the same compound, in series [2], the “ECM DATA % Inhibition 1 uM” value was 37.7% and the “ECM DATA % Inhibition 5 uM” value is 37.8%. Moreover, the “Plasma Levels (μM) 3 hr” value in series [3] was found to be 0 µM.

For the compound `Cc1cccc(Cc2nnc(C(=O)[C@@H](NC(=O)CN3C(=O)CN=C(C4CCNCC4)c4ccccc43)C(C)C)o2)c1` [CE2233, 2-Oxo-5-(4-piperidinyl)-1,4-benzodiazepine-N-[1-(2-[5-(3-methylbenzyl)-1,3,4-oxadiazolyl]carbonyl)-2-(S)-methylpropyl]acetamide], the Ki in series [1] (read-out: HNE Ki) worked out at 41.6 nM. Further, in series [2], 1 µM produced 54.7% inhibition and testing at 5 µM gave an inhibition of 55.4%. Further, in series [3], the concentration at 1 h turned out to be 0.07 µM and the concentration at 3 h is 0.065 µM. In addition, the concentration at 6 h in series [3] (6 hr) came out at 0.036 µM.
